Assay: excess molar enthalpy (molar enthalpy of mixing); xn = mol fraction of the nth substance listed
Conditions: 101 kPa, Liquid, Flow calorimetry

CC(C)CC(C)(C)C [2,2,4-trimethylpentane] + CCCCO
313.15 K
Conditions	excess molar enthalpy [kcal/mol]
x1 = 0.0502	0.0251
x1 = 0.1001	0.0487
x1 = 0.1505	0.072
x1 = 0.2003	0.0939
x1 = 0.2505	0.115
x1 = 0.3001	0.134
x1 = 0.3504	0.152
x1 = 0.4001	0.167
x1 = 0.4499	0.181
x1 = 0.5008	0.192
x1 = 0.5501	0.2
x1 = 0.5999	0.205
x1 = 0.6498	0.207
x1 = 0.7	0.206
x1 = 0.75	0.201
x1 = 0.7996	0.193
x1 = 0.8502	0.179
x1 = 0.9001	0.159
x1 = 0.9506	0.125

CCCCO [butan-1-ol] + Cc1ccccc1
excess molar enthalpy [kcal/mol]
Conditions	298.15 K	313.15 K
x2 = 0.0504	0.0245	0.0341
x2 = 0.0998	0.0498	–
x2 = 0.0999	–	0.0685
x2 = 0.1501	0.0753	0.102
x2 = 0.2011	0.101	0.136
x2 = 0.251	0.125	–
x2 = 0.2512	–	0.166
x2 = 0.2999	0.148	–
x2 = 0.3	–	0.195
x2 = 0.3495	0.169	–
x2 = 0.3496	–	0.221
x2 = 0.3998	0.189	–
x2 = 0.4	–	0.243
x2 = 0.4509	0.207	–
x2 = 0.4511	–	0.264
x2 = 0.5009	0.221	–
x2 = 0.501	–	0.279
x2 = 0.5495	0.231	–
x2 = 0.5496	–	0.291
x2 = 0.6009	0.239	–
x2 = 0.601	–	0.299
x2 = 0.6509	0.242	–
x2 = 0.6511	–	0.302
x2 = 0.6996	0.24	–
x2 = 0.6998	–	0.298
x2 = 0.7512	0.234	–
x2 = 0.7513	–	0.29
x2 = 0.7992	0.222	0.274
x2 = 0.85	0.203	0.249
x2 = 0.8993	0.174	0.21
x2 = 0.9493	0.124	0.143

C1CCCCC1 [cyclohexane] + CCCCO
313.15 K
Conditions	excess molar enthalpy [kcal/mol]
x1 = 0.0505	0.0234
x1 = 0.1001	0.0459
x1 = 0.1505	0.0679
x1 = 0.2	0.0885
x1 = 0.2505	0.108
x1 = 0.2999	0.126
x1 = 0.3501	0.143
x1 = 0.4003	0.158
x1 = 0.4504	0.171
x1 = 0.5003	0.182
x1 = 0.55	0.19
x1 = 0.5995	0.195
x1 = 0.6499	0.197
x1 = 0.7	0.194
x1 = 0.7499	0.188
x1 = 0.7995	0.178
x1 = 0.8499	0.163
x1 = 0.8999	0.142
x1 = 0.9496	0.109

C=CCCCC [hex-1-ene] + CCCCO
excess molar enthalpy [kcal/mol]
Conditions	298.15 K	313.15 K
x1 = 0.05	0.0104	0.0188
x1 = 0.1001	–	0.0398
x1 = 0.1002	0.0234	–
x1 = 0.1505	–	0.0602
x1 = 0.1506	0.0372	–
x1 = 0.2002	–	0.0812
x1 = 0.2003	0.0527	–
x1 = 0.2499	–	0.102
x1 = 0.25	0.0676	–
x1 = 0.3004	–	0.121
x1 = 0.3005	0.0829	–
x1 = 0.3498	–	0.141
x1 = 0.35	0.0967	–
x1 = 0.4	–	0.158
x1 = 0.4001	0.11	–
x1 = 0.4498	–	0.174
x1 = 0.4499	0.123	–
x1 = 0.5001	–	0.188
x1 = 0.5003	0.134	–
x1 = 0.5501	–	0.198
x1 = 0.5503	0.143	–
x1 = 0.5995	–	0.206
x1 = 0.5996	0.149	–
x1 = 0.6504	–	0.21
x1 = 0.6505	0.154	–
x1 = 0.7005	–	0.211
x1 = 0.7006	0.155	–
x1 = 0.7498	–	0.207
x1 = 0.7499	0.153	–
x1 = 0.8005	–	0.2
x1 = 0.8006	0.147	–
x1 = 0.8503	0.138	0.187
x1 = 0.9002	0.123	0.166
x1 = 0.9501	0.0969	0.127

C=CCCCC [hex-1-ene] + CCCCOCCCC
excess molar enthalpy [kcal/mol]
Conditions	298.15 K	313.15 K
x2 = 0.0503	-0.000741	-0.001
x2 = 0.1001	-0.00139	–
x2 = 0.15	–	-0.00296
x2 = 0.1501	-0.00258	–
x2 = 0.2	-0.0033	-0.00382
x2 = 0.25	-0.00402	-0.00447
x2 = 0.2997	–	-0.00497
x2 = 0.2998	-0.00452	–
x2 = 0.3502	-0.00488	–
x2 = 0.3503	–	-0.0054
x2 = 0.3994	-0.00519	–
x2 = 0.3995	–	-0.00566
x2 = 0.4502	-0.00533	–
x2 = 0.4503	–	-0.00581
x2 = 0.4995	-0.00543	–
x2 = 0.4997	–	-0.00586
x2 = 0.5494	-0.00533	–
x2 = 0.5495	–	-0.00578
x2 = 0.5996	-0.00511	–
x2 = 0.5997	–	-0.00557
x2 = 0.6491	-0.0048	–
x2 = 0.6493	–	-0.00521
x2 = 0.7001	-0.00437	–
x2 = 0.7002	–	-0.00468
x2 = 0.7491	-0.00382	–
x2 = 0.7492	–	-0.00425
x2 = 0.7995	-0.00296	–
x2 = 0.7996	–	-0.00361
x2 = 0.8501	-0.00232	-0.00284
x2 = 0.8996	-0.00155	-0.00203
x2 = 0.9504	-0.000717	-0.00108

CC1CCCCC1 [methylcyclohexane] + CCCCO
excess molar enthalpy [kcal/mol]
Conditions	298.15 K	313.15 K
x1 = 0.0498	0.0151	0.0212
x1 = 0.1	0.0301	0.0424
x1 = 0.1505	0.0449	0.0629
x1 = 0.2005	0.0588	0.0826
x1 = 0.2506	0.0725	–
x1 = 0.2507	–	0.101
x1 = 0.3	0.0852	0.119
x1 = 0.3502	0.0974	0.135
x1 = 0.4002	0.109	0.15
x1 = 0.45	–	0.163
x1 = 0.4501	0.119	–
x1 = 0.5006	–	0.174
x1 = 0.5007	0.127	–
x1 = 0.5497	0.134	0.182
x1 = 0.6004	0.138	0.188
x1 = 0.6505	0.14	0.19
x1 = 0.6999	0.14	–
x1 = 0.7	–	0.189
x1 = 0.7498	0.136	0.184
x1 = 0.7999	0.129	–
x1 = 0.8	–	0.176
x1 = 0.8504	0.118	0.162
x1 = 0.8997	0.104	0.144
x1 = 0.9505	0.0814	0.112

CC1CCCCC1 [methylcyclohexane] + CCCCOCCCC
excess molar enthalpy [kcal/mol]
Conditions	298.15 K	313.15 K
x2 = 0.0497	0.0055	0.00497
x2 = 0.1003	0.0103	0.00908
x2 = 0.1501	0.0137	0.0126
x2 = 0.1997	0.0165	–
x2 = 0.1998	–	0.0153
x2 = 0.2501	0.0189	0.0175
x2 = 0.3002	0.0207	0.0193
x2 = 0.3499	0.0218	–
x2 = 0.35	–	0.0203
x2 = 0.3993	0.0225	–
x2 = 0.3994	–	0.0211
x2 = 0.45	0.0228	–
x2 = 0.4501	–	0.0215
x2 = 0.4993	0.0226	0.0213
x2 = 0.5499	0.022	–
x2 = 0.55	–	0.0207
x2 = 0.5999	0.021	–
x2 = 0.6	–	0.0197
x2 = 0.6491	0.0196	–
x2 = 0.6492	–	0.0184
x2 = 0.6997	0.0177	0.0168
x2 = 0.7493	0.0156	0.0147
x2 = 0.8002	0.0131	0.0123
x2 = 0.8501	0.0103	0.00966
x2 = 0.9001	0.00707	0.00674
x2 = 0.95	0.00356	–
x2 = 0.9501	–	0.00339
